Measurements: patent US20080279775A1, “Benztropinamine Analogs as Dopamine Uptake Inhibitors” (priority 2005, published 2008)
Values joined by “and” are separate entries in the source; they are usually repeats but may differ in a detail not shown here. Equal entries are not always repeated. “Also recorded” adds a separate entry of the source.

How the values were obtained:
[1] = target: T1, DAT (Rattus norvegicus, UniProt P23977); assay: Dopamine transporter binding assay, displacement of [3H]WIN 35,428; details: rat caudate-putamen membranes; read-out: DAT [3H]WIN 35,428 Ki ± SEM
T1 construct: their brains removed to an ice-cooled dish for dissection of the caudate putamen; from tissue; host or cells: rat caudate putamen membranes (fresh homogenates)
T1 sequence (P23977 whole entry): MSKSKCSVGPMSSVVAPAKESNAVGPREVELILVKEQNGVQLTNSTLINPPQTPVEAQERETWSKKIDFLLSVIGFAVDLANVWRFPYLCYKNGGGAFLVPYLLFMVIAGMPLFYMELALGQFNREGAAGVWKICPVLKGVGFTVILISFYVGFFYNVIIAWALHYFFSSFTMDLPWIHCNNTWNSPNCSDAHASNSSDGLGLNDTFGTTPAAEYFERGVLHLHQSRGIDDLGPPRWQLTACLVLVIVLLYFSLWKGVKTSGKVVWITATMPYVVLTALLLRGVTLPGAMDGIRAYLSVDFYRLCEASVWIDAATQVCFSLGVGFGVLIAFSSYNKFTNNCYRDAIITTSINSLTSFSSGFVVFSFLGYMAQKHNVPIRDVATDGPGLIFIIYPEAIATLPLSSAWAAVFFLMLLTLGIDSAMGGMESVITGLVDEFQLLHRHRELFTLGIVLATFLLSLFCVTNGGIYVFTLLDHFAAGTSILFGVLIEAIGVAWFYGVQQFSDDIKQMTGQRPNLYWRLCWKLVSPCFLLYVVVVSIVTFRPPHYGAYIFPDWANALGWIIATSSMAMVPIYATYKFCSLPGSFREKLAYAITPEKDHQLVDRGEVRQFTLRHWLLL

[2] = target: T2, SERT (Rattus norvegicus, UniProt P31652); assay: [3H]Citalopram binding assay
T2 construct: Membranes from frozen rat midbrain were homogenized; from tissue; host or cells: frozen rat midbrain membranes
T2 sequence (P31652 whole entry): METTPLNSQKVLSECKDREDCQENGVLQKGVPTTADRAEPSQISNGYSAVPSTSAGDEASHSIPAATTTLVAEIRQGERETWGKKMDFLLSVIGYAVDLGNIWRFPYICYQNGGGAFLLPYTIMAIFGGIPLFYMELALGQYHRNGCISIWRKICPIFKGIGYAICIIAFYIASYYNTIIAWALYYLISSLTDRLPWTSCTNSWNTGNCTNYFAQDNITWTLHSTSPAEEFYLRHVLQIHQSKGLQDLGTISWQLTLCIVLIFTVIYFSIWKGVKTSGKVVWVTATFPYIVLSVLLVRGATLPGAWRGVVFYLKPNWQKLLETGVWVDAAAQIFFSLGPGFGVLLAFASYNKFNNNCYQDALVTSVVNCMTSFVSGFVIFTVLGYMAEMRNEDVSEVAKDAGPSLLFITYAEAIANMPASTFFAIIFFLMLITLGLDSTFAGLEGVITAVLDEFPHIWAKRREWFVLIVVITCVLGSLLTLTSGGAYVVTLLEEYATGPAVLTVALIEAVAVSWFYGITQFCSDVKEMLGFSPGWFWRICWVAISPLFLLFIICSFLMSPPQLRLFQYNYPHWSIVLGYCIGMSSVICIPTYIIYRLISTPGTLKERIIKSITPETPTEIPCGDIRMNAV
Protocol: (§1) In order to understand the neurochemical and behavioral properties of the compounds of the present invention, exemplary benztropinamine analogs were evaluated for displacement of [^3H]WIN 35,428 (2β-carbomethoxy-3β-(4-fluorophenyl)tropane) binding to the DAT in rat caudate-putamen. These benztropinamine analogs were also evaluated for displacement of radiolabeled ligand binding at the serotonin (SERT) and norepinephrine (NET) transporters as well as the muscarinic m1 receptor (M1), Table 1, infra. The NET over DAT selectivity refers to the Ki ratio. When the Ki ratio is greater than 1, the compound is DAT selective. The DAT selectivities of the analogs over these binding sites are depicted in Table 2.
[^3H]Citalopram Binding Assay. Membranes from frozen rat midbrain were homogenized in 20 volumes (w/v) of 50 mM Tris containing 120 mM NaCl and 5 mM KCl (pH 7.4 at 25° C.), using a Brinkman Polytron (at setting 6 for 20 sec). The tissue was centrifuged at 20,000×g for 10 min at 4° C. The resulting pellet was resuspended in buffer and recentrifuged. The final pellet was resuspended in cold buffer to a concentration of 15 mg/ml (original wet weight). Ligand binding experiments were conducted in assay tubes containing 0.5 ml of buffer, 1.4 nM [^3H]citalopram (New England Nuclear, Boston Mass.), and 1.5 mg midbrain tissue. The reaction was started with the addition of the tissue and the tubes were incubated for 60 min at 25° C. (room temperature). The incubation was terminated by rapid filtration through Whatman GF/B filters (presoaked in 0.3% polyethylenimine in water) using a Brandel Cell Harvester (Brandel Instruments Gaithersburg, Md.). The filters were washed twice with 5 ml cold buffer, transferred to scintillation vials to which Beckman Ready Safe was added. Nonspecific binding was determined using 10 μM fluoxetine (RBI, Natick, Mass.). Data were analyzed using GraphPad Prism software (San Diego, Calif.).

[3] = system: NET; type: binding, rat; details: Ki ratio
Protocol: as §1
[^3H]Nisoxetine Binding Assay. Membranes from frozen frontal cortex dissected from male Sprague-Dawley rats (Taconic Labs, Germantown, N.Y.) were homogenized in 20 volumes (w/v) of 50 mM Tris containing 120 mM NaCl and 5 mM KCl (pH 7.4 at 25° C.), using a Brinkman Polytron (at setting 6 for 20 sec). The tissue was centrifuged at 50,000×g for 10 min at 4° C. The resulting pellet was resuspended in buffer and recentrifuged. The final pellet was resuspended in cold buffer to a concentration of 80 mg/ml (original wet weight). Ligand binding experiments were conducted in assay tubes containing 0.5 ml buffer, 0.5 nM [3H]nisoxetine (New England Nuclear, Boston, Mass.), and 8 mg frontal cortex tissue. The reaction was started with the addition of the tissue and the tubes were incubated for 60 min at 0-4° C. The incubation was terminated by rapid filtration through Whatman GF/B filters, presoaked in 0.05% polyethylenimine, using a Brandel Cell Harvester (Brandel Instruments Gaithersburg, Md.). The filters were washed twice with 5 ml cold buffer, transferred to scintillation vials to which Beckman Ready Safe was added. Nonspecific binding was determined using 1 μM desipramine. Data were analyzed using GraphPad Prism software (San Diego, Calif.).

[4] = target: T3, muscarinic M1 receptor (Rattus norvegicus, UniProt P08482); assay: [3H]Pirenzepine binding assay
T3 construct: Membranes from frozen rat brains excluding cerebellum were thawed in ice-cold buffer; from tissue; host or cells: frozen rat brain (excluding cerebellum) membranes
T3 sequence (P08482 1-460): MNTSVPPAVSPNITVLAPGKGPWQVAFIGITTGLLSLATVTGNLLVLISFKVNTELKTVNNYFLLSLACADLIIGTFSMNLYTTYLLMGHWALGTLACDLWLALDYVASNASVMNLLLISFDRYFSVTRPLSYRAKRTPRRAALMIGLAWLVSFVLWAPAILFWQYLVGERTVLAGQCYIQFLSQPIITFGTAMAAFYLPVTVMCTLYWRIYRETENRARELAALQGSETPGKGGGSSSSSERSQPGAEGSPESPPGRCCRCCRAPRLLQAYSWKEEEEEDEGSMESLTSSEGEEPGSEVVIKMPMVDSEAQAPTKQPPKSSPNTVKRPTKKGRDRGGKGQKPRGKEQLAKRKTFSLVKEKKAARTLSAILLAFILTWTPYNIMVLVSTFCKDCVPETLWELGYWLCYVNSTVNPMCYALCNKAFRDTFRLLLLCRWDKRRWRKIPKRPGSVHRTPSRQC
Protocol: as §1, with “When the Ki ratio is greater than 1, the compound is DAT selective.” left out
[…] Binding Assay. Membranes from frozen rat brains excluding cerebellum were thawed in ice-cold buffer (10 mM Tris-HCl, 320 mM sucrose, pH 7.4) and homogenized with a Brinkman polytron in a volume of 10 ml/gm of tissue. The homogenate was centrifuged at 1,000×g for 10 min at 4° C. The resulting supernatant was then centrifuged at 10,000×g for 20 min at 4° C. The resulting pellet was resuspended in a volume of 200 mg/ml in 10 mM Tris buffer (pH 7.4). Ligand binding assays were conducted in tubes containing 0.5 ml of buffer (10 mM Tris-HCl, 5 mM MgCl2), 3 nM [^3H]pirenzepine (New England Nuclear, Boston, Mass.), and 20 mg of brain tissue. The reaction was started with the addition of the tissue and the tubes were incubated for 60 min in a 37° C. water bath. The incubation was terminated by the addition of 5 ml of ice-cold buffer (10 mM Tris-HCl, pH 7.4) and rapid filtration through Whatman GF/B glass fiber filter paper (presoaked in 0.5% polyethylenimine) using a Brandel Cell Harvester (Brandel Instruments, Gaithersburg, Md.). The filters were washed twice with 5 ml cold buffer, and transferred to scintillation vials to which absolute ethanol and Beckman Ready Safe was added. Quinuclidinyl benzilate (QNB), 100 μM final concentration, was used to determine non-specific binding. Data were analyzed by using GraphPad Prism software (San Diego, Calif.).

[5] = system: mice; assay: Locomotor stimulant effects (activity counts per minute); type: in vivo
Source text: In contrast, 2m produced much more modest increases in activity of around 100 counts per min.

[6] = system: rats; assay: Cocaine drug discrimination (cocaine-like subjective effects); type: in vivo; details: rats trained to discriminate cocaine from vehicle, over the dose range tested, FIGS. 3A and 3B
Source text: FIG. 3A depicts % drug responding as a function of dose; FIG. 3B depicts % control response rate as a function of dose.
Rats were trained to emit one response after an injection of cocaine and a different response after injection of vehicle. Once the subjects were well trained, they act as detectors of cocaine-like subjective effects.

**Q.** Which Ki [1] does the source give for `O=C(CCN1[C@@H]2CC[C@H]1C[C@@H](NC(c1ccc(F)cc1)c1ccc(F)cc1)C2)Nc1ccccc1` [Compound 2m] here?
**A.** The Ki was 0.00461 µM.

**Q.** And the “Binding selectivity SERT/DAT” value ([2]; Ki ratio)?
**A.** The value was 132.

**Q.** What about the Ki ([2]; rat midbrain membranes, read-out: SERT [3H]citalopram Ki ± SEM) of the same compound?
**A.** Its Ki is 0.608 ± 0.041 µM.

**Q.** And the “Binding selectivity NET/DAT” value [3]?
**A.** Its value is 535 and 536.

**Q.** What about the “Binding selectivity M1/DAT” value ([4]; Ki ratio) of the same compound?
**A.** Its value is 551.

**Q.** And the Ki ([4]; rat brain membranes excluding cerebellum, read-out: M1 [3H]pirenzepine Ki ± SEM)?
**A.** Its Ki is 2.54 ± 0.124 µM.

**Q.** What about the “Cocaine-like locomotor stimulant effects” value [5] of the same compound?
**A.** The value was “lacks cocaine-like locomotor stimulant effects”.

**Q.** And the Locomotor activity ([5]; injected, at the most effective dose, FIG. 2)?
**A.** Its Locomotor activity is “around 100 counts per min”.

**Q.** And the “Cocaine-like subjective effects (substitution for cocaine)” value [6]?
**A.** Its value is “lacks cocaine-like subjective effects; also recorded: did not substitute for cocaine”.
